Assay results as given in patent US20250188110A1, “SPECIFIC SMALL MOLECULE INHIBITORS THAT BLOCK KMT9 METHYLTRANSFERASE ACTIVITY AND FUNCTION” (ALBERT-LUDWIGS-UNIVERSITÄT FREIBURG, priority 2021, published 2025).
Where two headings read alike, the source gives them in different places.

Experiments:
SKBR3 = assay: Further cell proliferation assay, X-Celligence RTCA, SKBR3; type: cell-based; conditions: Homo sapiens, SK-BR-3
Protocol: (§1) Compound no. 1 (Name 287) was tested in further cell proliferation assays using different cancer cell lines. Cell proliferation was determined using X-Celligence RTCA system (Roche). For real-time recording of CAL-29, VM-CUB1, SW480, SKBR3, HT-1376, PC-3M, A549, UM-UC-3, DU145 and 22RV1, between 2500 and 20000 cells/well (depending on the cell type) were seeded in 16 well E-plates (Roche). Cells were seeded in presence of DMSO or Compound no. 1 (Name 287) 24 h before seeding in E-plates. Cell indices were automatically recorded every 15 minutes. Relative velocities represent the change of the cell index over time. The ECso values of compound no.

CAL-29 = assay: Further cell proliferation assay, X-Celligence RTCA, CAL-29; type: cell-based
Protocol: as §1

PC-3M = assay: Further cell proliferation assay, X-Celligence RTCA, PC-3M; type: cell-based; conditions: Homo sapiens, castration resistant prostate cancer cells
Protocol: as §1

UM-UC-3 = assay: Further cell proliferation assay, X-Celligence RTCA, UM-UC-3; type: cell-based; conditions: Homo sapiens, UMUC3
Protocol: as §1

22RV1 = assay: Further cell proliferation assay, X-Celligence RTCA, 22RV1; type: cell-based; conditions: Homo sapiens; 22RV1, castration resistant prostate cancer cells
Protocol: as §1

SW480 = assay: Further cell proliferation assay, X-Celligence RTCA, SW480; type: cell-based; conditions: Homo sapiens
Protocol: as §1

DU145 = assay: Further cell proliferation assay, X-Celligence RTCA, DU145; type: cell-based; conditions: Homo sapiens, DU-145; DU145, castration resistant prostate cancer cells
Protocol: as §1

VM-CUB1 = assay: Further cell proliferation assay, X-Celligence RTCA, VM-CUB1; type: cell-based; conditions: Homo sapiens, VM-CUB-1
Protocol: as §1

HT-1376 = assay: Further cell proliferation assay, X-Celligence RTCA, HT-1376; type: cell-based; conditions: Homo sapiens
Protocol: as §1

A549 = assay: Further cell proliferation assay, X-Celligence RTCA, A549; type: cell-based; conditions: Homo sapiens
Protocol: as §1

KMT9 [1] = molecular target: T1, KMT9 (Homo sapiens, UniProt Q9Y5N5); assay: KMT9 methyltransferase inhibition assay, MTaseGlo luminescence (from entry 155); type: biochemical; conditions: 100 nM KMT9, 5 μM ETF1, 1 μM SAM
T1 sequence (Q9Y5N5 1-214): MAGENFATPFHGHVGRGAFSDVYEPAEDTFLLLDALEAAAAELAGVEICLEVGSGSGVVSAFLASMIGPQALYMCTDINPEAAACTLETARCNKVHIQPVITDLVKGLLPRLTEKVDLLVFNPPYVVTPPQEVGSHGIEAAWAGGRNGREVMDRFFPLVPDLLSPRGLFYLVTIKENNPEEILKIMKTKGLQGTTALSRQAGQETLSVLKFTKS
T1 sequence (Q9UI30 1-120 isoform Q9UI30-2 partner): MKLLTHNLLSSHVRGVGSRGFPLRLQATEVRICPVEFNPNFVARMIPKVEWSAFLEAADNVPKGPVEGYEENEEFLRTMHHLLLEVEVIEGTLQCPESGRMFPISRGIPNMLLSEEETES
In short: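 KMT9 (100 nM final) pre-incubated with inhibitor for 15 min at room temperature, then reacted with 5 μM ETF1 and 1 μM SAM for 2 h at 30° C. at 2% DMSO final. MTaseGlo luminescence read after 60 min detection; IC50 reported in four potency bins.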

KMT9 [2] = molecular target: T1, KMT9; assay: KMT9 thermal shift assay (SyproOrange); type: binding; conditions: 2 μM KMT9
In short: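 Recombinant KMT9 was incubated with compound and SyproOrange at 25° C in 50 mM BTP pH 8.5, 1 mM MgCl2, 1 mM DTT. It was then heated from 20° C to 95° C at 1° C per 15 s with fluorescence read each step. Tm came from a Boltzmann sigmoidal fit; ΔTm relative to DMSO control, binned in 5 K ranges.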

KMT9 [3] = molecular target: T1, KMT9; assay: Microscale thermophoresis (MST) KMT9 binding; conditions: His-tag labelled KMT9 20 nM
In short: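 His-tagged KMT9 (20 nM), RED-Tris-NTA labelled, titrated with varying compound concentrations in 25 mM HEPES pH 7.5, 100 mM NaCl, 1 mM DTT, 0.05% Tween. MST at 40% MST and 100% LED power, Nano-RED excitation; Kd binned A ≤10 nM, B 10–100, C 100–1000, D >1000 nM.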

[4] = MTaseGlo procedure (entries from 155), read-out: Inhibition (IC50)
[5] = 500 µM compound, read-out: Thermal shift (ΔTm)

IC50 (KMT9 [1]; [4]) [µM] | ΔTm at 500 µM (KMT9 [2]; [5]) [°C] | Kd (KMT9 [3]; read-out: MST (Kd)) [µM] | Compound | further results
1 to 10 | ≤ 10 | 0.1 to 1 | Nc1nc(Cl)nc2c1ccn2[C@@H]1C[C@H](c2cccc(OC(F)(F)F)c2)[C@@H](O)[C@H]1O [Compound 668, (1R,2S,3R,5R)-3-(4-amino-2-chloro-7H-pyrrolo[2,3-d]pyrimidin-7-yl)-5-(3-(trifluoromethoxy)phenyl)cyclopentane-1,2-diol] | 
1 to 10 | 10 to 15 | 0.01 to 0.1 | COc1cc(-c2cnsc2)cc([C@H]2C[C@@H](n3ccc4c(N)nc(Cl)nc43)[C@H](O)[C@@H]2O)c1 [Compound 667, (1R,2S,3R,5R)-3-(4-amino-2-chloro-7H-pyrrolo[2,3-d]pyrimidin-7-yl)-5-(3-(isothiazol-4-yl)-5-methoxyphenyl)cyclopentane-1,2-diol] | 

The remaining lines, values behind:

Compound | IC50 (KMT9 [1]; [4]) [µM] | ΔTm at 500 µM (KMT9 [2]; [5]) [°C] | Kd (KMT9 [3]; read-out: MST (Kd)) [µM] | further results
CNc1ncnc2c1ccn2[C@@H]1C[C@H](CNCCCNCCc2cccc(Oc3ccccc3)c2)[C@@H](O)[C@H]1O [Compound 287, (1R,2S,3R,5R)-3-(4-(methylamino)-7H-pyrrolo[2,3-d]pyrimidin-7-yl)-5-(((3-((3-phenoxyphenethyl)amino)propyl)amino)methyl) cyclopentane-1,2-diol] |  |  |  | EC50 (SKBR3): 6.6 µM; EC50 (CAL-29): 6.45 µM; EC50 (PC-3M): 15.8 µM; EC50 (UM-UC-3): 17 µM; EC50 (22RV1): 16.6 µM; EC50 (SW480): 9.12 µM; EC50 (DU145): 19 µM; EC50 (VM-CUB1): 6.17 µM; EC50 (HT-1376): 12.6 µM; EC50 (A549): 12 µM
COc1cc(Br)cc([C@H]2C[C@@H](n3ccc4c(N)nc(Cl)nc43)[C@H](O)[C@@H]2O)c1 [Compound 666, (1R,2S,3R,5R)-3-(4-amino-2-chloro-7H-pyrrolo[2,3-d]pyrimidin-7-yl)-5-(3-bromo-5-methoxyphenyl)cyclopentane-1,2-diol] | 0.1 to 1 | 10 to 15 | 0.01 to 0.1 | 
Nc1nc(Cl)nc2c1ccn2[C@@H]1C[C@H](c2cnn(CCc3ccccc3)c2)[C@@H](O)[C@H]1O [Compound 584, (1R,2S,3R,5R)-3-(4-Amino-2-chloro-7H-pyrrolo[2,3-d]pyrimidin-7-yl)-5-(1-phenethyl-1H-pyrazol-4-yl)cyclopentane-1,2-diol] | > 10 | ≤ 10 | > 1 | 
Nc1ncnc2c1c(-c1nc(Cc3ccccc3)cs1)cn2[C@@H]1C[C@H]([C@@H]2CCNC2)[C@@H](O)[C@H]1O [Compound 589S, (1R,2S,3R,5R)-3-[4-Amino-5-(4-benzyl-1,3-thiazol-2-yl)pyrrolo[2,3-d]pyrimidin-7-yl]-5-[(3S)-pyrrolidin-3-yl]cyclopentane-1,2-diol] |  |  |  | IC50 (KMT9 [1]; IC50 class, MTaseGlo procedure (entries from 155 on), read-out: Inhibition): 1 to 10 µM; ΔTm at 500 µM (KMT9 [2]; ΔTm class, 500 uM compound, read-out: Thermal shift): 10 to 15 °C; Kd (KMT9 [3]; Kd class, read-out: MST): 0.1 to 1 µM
Nc1nc(Cl)nc2c1ccn2[C@@H]1C[C@H](c2ccc(O)cc2)[C@@H](O)[C@H]1O [Compound 655] | 0.1 to 1 | 10 to 15 | ≤ 0.01 | 
